# Test results as given in patent US12084481B2 (priority 2016, dated 2024).
# Target: Hv1 channels (Homo sapiens, UniProt Q96D96)
# Details: cited from earlier work
# Chain of Hv1 channels (Q96D96 whole entry): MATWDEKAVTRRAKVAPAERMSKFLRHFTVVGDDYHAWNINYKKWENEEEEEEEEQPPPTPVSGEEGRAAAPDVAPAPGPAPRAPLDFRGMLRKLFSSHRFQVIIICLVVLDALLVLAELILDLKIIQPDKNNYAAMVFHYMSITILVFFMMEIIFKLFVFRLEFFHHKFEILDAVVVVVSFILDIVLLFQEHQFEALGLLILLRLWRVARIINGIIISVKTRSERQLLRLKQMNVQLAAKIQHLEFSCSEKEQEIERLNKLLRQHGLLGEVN
Molecule,effect on Hv1 proton currents,concentrations inhibiting Hv1
CCCCC/C=C\C/C=C\C/C=C\C/C=C\CCCC(=O)O [arachidonic acid],enhance Hv1 proton currents,
CCCCCCCC/C=C\CCCCCCCC(=O)O [oleic acid],enhance Hv1 proton currents,
ECRYLFGGCKTTSDCCKHLGCKFRDKYCAWDFTFS [hanatoxin],,low micromolar

# System: human blood cells
# Format: cell-based
# Details: 100 μM
row,Molecule,production of ROS
1,[Zn] [zinc],blocks ROS production to background (control) levels

# System: H^+ currents
# Details: cited from earlier work
row,Molecule,effect on H^+ currents
1,Nc1ccncc1 [4-aminopyridine],block H^+ currents
2,COc1ccc(CCN(C)CCCC(C#N)(c2cc(OC)c(OC)c(OC)c2)C(C)C)cc1OC (stereo not shown) [D600],block H^+ currents
3,O=C(O[C@@H]1Cc2c(O)cc(O)cc2O[C@@H]1c1cc(O)c(O)c(O)c1)c1cc(O)c(O)c(O)c1 [EGCG],block H^+ currents
4,N=C(N)NC(=O)c1nc(Cl)c(N)nc1N [amiloride],block H^+ currents
5,CN(C)CCC=C1c2ccccc2CCc2ccccc21 [amitryptiline],block H^+ currents
6,CNCCCN1c2ccccc2CCc2ccccc21 [desipramine],block H^+ currents
7,COc1ccc2c(c1)[C@]13CCCC[C@@H]1[C@H](C2)N(C)CC3 [dextromethorphan],block H^+ currents
8,CNCCC(Oc1ccc(C(F)(F)F)cc1)c1ccccc1 (stereo not shown) [fluoxetine],block H^+ currents
9,CN(C)CCCN1c2ccccc2CCc2ccccc21 [imipramine],block H^+ currents
10,COc1ccc(CCN(C)CCCC(C#N)(c2ccc(OC)c(OC)c2)C(C)C)cc1OC (stereo not shown) [verapamil],block H^+ currents

# Target: hHv1 (Homo sapiens, UniProt Q96D96)
# Sequence (Q96D96 whole entry): as the sequence (Q96D96 whole entry) above
# Format: cell-based
# Details: not given
row,Molecule,Activator/Inhibitor
1,GCKGFGDSCADSDDCCETFHCKWVFFTSKFMCRRVWGKD [A6],ACTIVATOR
2,GCLGDKCADSDDCCETFHCKWVFFTSKFMCRRVWGKD [B1],ACTIVATOR
